This assay deals with acyl-coenzyme A:cholesterol acyltransferase (ACAT). Format: biochemical, Mus musculus.

The results in this text go back to publication PMC2665256 (Biochemical and biophysical research communications, 2009).

Structures are written as SMILES.

`Cc1ccc(Cn2nc(C(=O)N[C@@H]3C(C)(C)[C@@H]4CC[C@@]3(C)C4)cc2-c2ccc(Cl)c(C)c2)cc1` [SR144528] had an IC50 of 3.6 ± 1.1 µM.

On to `CCCCCCCCCC[Si](C)(C)CCC(=O)NC(Cc1ccc(C)cc1)c1ccccc1` (centres unmarked) [58-035], for which half-maximal inhibition (IC50) was put at 0.4 ± 0.2 µM.

As usually defined, the IC50 is the concentration at which inhibition is half-maximal. Read a high IC50 as lower potency.
